How the values were obtained:
Toll-like receptor 8 [1] = molecular target: T1, Toll-like receptor 8 (Homo sapiens, UniProt Q9NR97); experiment: Antagonist activity at human TLR8 expressed in Drosophila S2 by TR-FRET assay
T1 sequence (Q9NR97 whole entry): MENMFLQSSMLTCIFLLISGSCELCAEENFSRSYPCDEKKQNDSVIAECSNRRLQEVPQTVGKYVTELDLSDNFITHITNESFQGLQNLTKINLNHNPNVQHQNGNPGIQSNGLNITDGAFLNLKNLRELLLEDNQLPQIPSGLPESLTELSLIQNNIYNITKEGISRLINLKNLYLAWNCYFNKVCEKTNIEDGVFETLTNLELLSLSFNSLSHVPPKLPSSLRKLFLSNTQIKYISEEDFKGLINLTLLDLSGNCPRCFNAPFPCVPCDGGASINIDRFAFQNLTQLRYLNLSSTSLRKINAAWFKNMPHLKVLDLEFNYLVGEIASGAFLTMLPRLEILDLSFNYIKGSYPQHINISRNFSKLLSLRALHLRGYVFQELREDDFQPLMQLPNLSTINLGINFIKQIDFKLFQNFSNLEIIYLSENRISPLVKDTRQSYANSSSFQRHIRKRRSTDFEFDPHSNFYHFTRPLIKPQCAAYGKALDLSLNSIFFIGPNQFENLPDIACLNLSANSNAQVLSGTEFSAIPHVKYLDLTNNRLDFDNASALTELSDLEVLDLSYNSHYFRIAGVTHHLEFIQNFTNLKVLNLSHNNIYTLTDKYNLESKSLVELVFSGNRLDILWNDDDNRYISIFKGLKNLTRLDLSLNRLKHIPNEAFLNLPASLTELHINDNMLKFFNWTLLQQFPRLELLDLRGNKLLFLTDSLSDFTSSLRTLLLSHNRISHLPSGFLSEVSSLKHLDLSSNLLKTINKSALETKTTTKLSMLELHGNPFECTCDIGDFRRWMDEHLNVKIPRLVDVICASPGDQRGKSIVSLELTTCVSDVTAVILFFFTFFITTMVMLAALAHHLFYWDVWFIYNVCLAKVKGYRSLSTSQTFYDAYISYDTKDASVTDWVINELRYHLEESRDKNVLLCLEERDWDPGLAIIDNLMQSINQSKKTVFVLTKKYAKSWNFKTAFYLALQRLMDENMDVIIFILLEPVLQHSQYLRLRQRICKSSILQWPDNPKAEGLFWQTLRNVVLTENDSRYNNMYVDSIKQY

[2] = Dissociation constant, pKa of the compound by UV spectrometric titration method; type: physicochemical
Toll-like receptor 8 [3] = molecular target: T1, Toll-like receptor 8; experiment: Antagonist activity at human TLR8 expressed in human PBMC cells assessed as inhibition of ssRNA stimulated TNF level preincubated for 30 mins followed by stimulation and measured after 20 hrs by multiplate reader assay; type: cell-based
[4] = Octanol/water partition coefficient, logD of compound at pH 7.4 measured after 4 hrs by shake flask method; type: physicochemical
[5] = molecular target: Voltage-gated inwardly rectifying potassium channel KCNH2 (Homo sapiens, UniProt Q12809); experiment: Inhibition of human ERG; type: toxicity
Sequence of Voltage-gated inwardly rectifying potassium channel KCNH2 (Q12809 whole entry): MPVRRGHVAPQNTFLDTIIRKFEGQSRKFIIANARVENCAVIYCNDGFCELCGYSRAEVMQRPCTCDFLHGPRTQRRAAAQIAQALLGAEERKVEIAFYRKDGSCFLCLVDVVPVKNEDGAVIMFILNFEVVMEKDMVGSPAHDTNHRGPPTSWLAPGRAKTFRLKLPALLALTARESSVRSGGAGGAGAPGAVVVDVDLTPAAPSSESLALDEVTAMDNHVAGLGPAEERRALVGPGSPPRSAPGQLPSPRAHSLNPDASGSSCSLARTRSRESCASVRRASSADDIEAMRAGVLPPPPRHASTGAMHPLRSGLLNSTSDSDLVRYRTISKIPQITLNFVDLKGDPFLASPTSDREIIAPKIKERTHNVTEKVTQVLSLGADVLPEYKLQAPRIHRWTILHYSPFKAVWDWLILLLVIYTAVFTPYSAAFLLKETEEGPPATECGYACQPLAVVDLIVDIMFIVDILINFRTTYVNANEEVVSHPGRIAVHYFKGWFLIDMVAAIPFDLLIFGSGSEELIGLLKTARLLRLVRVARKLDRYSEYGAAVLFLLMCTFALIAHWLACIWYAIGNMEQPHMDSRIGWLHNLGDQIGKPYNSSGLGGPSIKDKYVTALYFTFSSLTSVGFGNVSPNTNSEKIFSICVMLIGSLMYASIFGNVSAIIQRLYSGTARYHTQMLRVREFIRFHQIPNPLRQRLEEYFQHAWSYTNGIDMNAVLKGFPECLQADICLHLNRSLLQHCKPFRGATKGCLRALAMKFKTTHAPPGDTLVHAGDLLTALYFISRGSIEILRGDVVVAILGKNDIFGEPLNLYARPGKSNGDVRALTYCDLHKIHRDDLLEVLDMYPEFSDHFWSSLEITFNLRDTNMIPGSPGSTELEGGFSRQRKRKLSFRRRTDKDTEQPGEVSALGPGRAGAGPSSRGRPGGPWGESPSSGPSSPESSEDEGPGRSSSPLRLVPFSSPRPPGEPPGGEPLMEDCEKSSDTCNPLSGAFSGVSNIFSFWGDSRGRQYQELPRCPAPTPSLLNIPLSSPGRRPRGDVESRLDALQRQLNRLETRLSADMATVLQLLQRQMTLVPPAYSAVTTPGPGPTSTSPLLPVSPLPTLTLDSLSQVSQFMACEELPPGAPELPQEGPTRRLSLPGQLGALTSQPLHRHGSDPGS

Cytochrome P450 3A4 = Cytochrome P450 3A4 (Homo sapiens, UniProt P08684); experiment: Inhibition of CYP3A4 (unknown origin); type: ADME
Sequence of Cytochrome P450 3A4 (P08684 whole entry): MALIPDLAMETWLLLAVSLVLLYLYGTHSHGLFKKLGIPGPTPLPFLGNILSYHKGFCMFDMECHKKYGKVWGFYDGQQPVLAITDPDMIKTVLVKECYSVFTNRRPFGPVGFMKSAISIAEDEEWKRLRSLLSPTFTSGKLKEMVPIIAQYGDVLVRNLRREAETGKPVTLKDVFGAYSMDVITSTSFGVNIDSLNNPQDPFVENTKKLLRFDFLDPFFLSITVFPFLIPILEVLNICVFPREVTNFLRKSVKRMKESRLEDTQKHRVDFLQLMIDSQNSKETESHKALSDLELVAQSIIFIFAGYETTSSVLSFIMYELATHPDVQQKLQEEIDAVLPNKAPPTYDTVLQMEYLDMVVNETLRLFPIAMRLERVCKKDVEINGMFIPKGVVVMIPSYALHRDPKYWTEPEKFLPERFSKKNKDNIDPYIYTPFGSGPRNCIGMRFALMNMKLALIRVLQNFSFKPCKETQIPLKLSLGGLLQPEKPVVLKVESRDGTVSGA

[6] = Dose normalized Cmax in C57BL/6 mouse at 3 mg/kg, po and 1 mg/kg, iv administered as cassette dose measured upto 24 hrs by LC/MS/MS analysis; type: ADME, organism-based; details: in vivo
[7] = Dose normalized AUC in C57BL/6 mouse at 3 mg/kg, po and 1 mg/kg,iv administered as cassette dose measured upto 24 hrs by LC/MS/MS analysis; type: ADME, organism-based; parameters: dose 3 mg/kg, time <=24; details: in vivo
[8] = Oral bioavailability in C57BL/6 mouse at 3 mg/kg administered as cassette dose measured upto 24 hrs by LC/MS/MS analysis; type: ADME, organism-based; details: in vivo
[9] = Clearance in C57BL6 mouse at 3 mg/kg, po or 1mg/kg, iv administered as cassette dose measured upto 24 hrs by LC/MS/MS analysis; type: ADME, organism-based; details: in vivo
[10] = Volume of distribution at steady state in C57BL/6 mouse at 3 mg/kg, po or 1 mg/kg, iv administered as cassette dose measured upto 24 hrs by LC/MS/MS analysis; type: ADME, organism-based; details: in vivo, read-out: Vdss
[11] = MRT in C57BL/6 mouse at 3 mg/kg, po or 1 mg/kg, iv administered as cassette dose measured upto 24 hrs by LC/MS/MS analysis; type: ADME, organism-based; details: in vivo
Toll-like receptor 7 = molecular target: T2, Toll-like receptor 7 (Homo sapiens, UniProt Q9NYK1); experiment: Antagonist activity at human TLR7 expressed in human PBMC cells assessed as inhibition of ssRNA stimulated IFNalpha level preincubated for 30 mins followed by stimulation and measured after 20 hrs by AlphaLISA method; type: cell-based
T2 sequence (Q9NYK1 whole entry): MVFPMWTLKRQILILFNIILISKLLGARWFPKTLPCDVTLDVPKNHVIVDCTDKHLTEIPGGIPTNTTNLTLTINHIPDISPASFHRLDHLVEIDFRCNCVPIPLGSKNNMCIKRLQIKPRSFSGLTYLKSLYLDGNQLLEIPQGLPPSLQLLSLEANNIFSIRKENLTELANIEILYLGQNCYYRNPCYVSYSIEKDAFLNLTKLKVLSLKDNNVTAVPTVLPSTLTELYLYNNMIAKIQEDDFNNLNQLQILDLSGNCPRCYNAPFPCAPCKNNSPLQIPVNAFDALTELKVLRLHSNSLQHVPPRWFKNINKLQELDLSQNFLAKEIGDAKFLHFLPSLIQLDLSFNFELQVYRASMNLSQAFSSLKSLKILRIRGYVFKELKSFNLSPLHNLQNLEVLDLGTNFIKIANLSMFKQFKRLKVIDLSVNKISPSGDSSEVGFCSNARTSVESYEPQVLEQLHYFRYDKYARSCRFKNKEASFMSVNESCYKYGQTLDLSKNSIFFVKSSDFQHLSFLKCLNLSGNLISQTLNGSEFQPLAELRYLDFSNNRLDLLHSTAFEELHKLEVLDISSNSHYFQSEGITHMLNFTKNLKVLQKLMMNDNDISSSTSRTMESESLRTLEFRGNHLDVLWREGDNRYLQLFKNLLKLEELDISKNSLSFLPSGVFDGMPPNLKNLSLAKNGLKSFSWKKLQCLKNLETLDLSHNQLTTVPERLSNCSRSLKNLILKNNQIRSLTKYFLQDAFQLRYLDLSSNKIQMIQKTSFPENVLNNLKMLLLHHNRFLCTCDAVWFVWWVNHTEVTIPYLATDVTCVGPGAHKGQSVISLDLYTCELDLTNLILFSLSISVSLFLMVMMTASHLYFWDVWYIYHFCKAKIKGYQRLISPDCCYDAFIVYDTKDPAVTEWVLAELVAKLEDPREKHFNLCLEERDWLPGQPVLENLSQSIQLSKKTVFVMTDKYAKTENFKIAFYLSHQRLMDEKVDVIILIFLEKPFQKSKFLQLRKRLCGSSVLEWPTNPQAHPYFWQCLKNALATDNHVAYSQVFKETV

Toll-like receptor 9 = molecular target: T3, Toll-like receptor 9 (Homo sapiens, UniProt Q9NR96); experiment: Antagonist activity at human TLR9 expressed in human PBMC cells assessed as inhibition of ODN2216 stimulated IFNalpha level preincubated for 30 mins followed by stimulation and measured after 20 hrs by AlphaLISA method; type: cell-based
T3 sequence (Q9NR96 whole entry): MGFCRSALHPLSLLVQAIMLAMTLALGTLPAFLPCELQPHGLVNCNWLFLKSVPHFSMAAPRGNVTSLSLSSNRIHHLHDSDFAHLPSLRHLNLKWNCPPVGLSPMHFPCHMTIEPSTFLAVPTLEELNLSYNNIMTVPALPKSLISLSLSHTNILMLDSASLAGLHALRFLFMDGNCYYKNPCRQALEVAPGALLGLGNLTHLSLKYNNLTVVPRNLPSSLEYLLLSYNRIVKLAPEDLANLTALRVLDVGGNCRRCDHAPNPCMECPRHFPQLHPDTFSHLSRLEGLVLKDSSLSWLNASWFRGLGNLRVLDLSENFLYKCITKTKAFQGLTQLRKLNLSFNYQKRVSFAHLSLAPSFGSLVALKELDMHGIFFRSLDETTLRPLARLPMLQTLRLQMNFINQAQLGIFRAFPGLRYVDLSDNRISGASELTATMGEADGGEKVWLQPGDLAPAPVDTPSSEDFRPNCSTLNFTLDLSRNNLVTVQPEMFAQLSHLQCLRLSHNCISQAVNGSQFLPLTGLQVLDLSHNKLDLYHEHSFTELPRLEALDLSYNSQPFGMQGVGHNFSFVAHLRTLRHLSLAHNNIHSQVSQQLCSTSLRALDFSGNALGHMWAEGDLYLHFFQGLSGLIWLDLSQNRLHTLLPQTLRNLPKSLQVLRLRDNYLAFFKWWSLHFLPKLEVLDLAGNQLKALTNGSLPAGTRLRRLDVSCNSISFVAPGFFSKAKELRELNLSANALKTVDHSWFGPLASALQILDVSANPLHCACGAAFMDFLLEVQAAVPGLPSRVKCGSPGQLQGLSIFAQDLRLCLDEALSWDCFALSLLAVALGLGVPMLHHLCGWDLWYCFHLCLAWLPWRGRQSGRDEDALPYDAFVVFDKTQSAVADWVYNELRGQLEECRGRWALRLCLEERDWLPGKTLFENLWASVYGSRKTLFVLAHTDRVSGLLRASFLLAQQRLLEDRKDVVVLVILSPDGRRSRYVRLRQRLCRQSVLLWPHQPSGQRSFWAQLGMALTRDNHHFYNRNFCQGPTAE

Toll-like receptor 4 = Toll-like receptor 4 (Homo sapiens, UniProt O00206); experiment: Antagonist activity at human TLR4 expressed in human PBMC cells assessed as inhibition of LPS stimulated TNF level preincubated for 30 mins followed by stimulation and measured after 20 hrs by multiplate reader assay; type: cell-based
Sequence of Toll-like receptor 4 (O00206 whole entry): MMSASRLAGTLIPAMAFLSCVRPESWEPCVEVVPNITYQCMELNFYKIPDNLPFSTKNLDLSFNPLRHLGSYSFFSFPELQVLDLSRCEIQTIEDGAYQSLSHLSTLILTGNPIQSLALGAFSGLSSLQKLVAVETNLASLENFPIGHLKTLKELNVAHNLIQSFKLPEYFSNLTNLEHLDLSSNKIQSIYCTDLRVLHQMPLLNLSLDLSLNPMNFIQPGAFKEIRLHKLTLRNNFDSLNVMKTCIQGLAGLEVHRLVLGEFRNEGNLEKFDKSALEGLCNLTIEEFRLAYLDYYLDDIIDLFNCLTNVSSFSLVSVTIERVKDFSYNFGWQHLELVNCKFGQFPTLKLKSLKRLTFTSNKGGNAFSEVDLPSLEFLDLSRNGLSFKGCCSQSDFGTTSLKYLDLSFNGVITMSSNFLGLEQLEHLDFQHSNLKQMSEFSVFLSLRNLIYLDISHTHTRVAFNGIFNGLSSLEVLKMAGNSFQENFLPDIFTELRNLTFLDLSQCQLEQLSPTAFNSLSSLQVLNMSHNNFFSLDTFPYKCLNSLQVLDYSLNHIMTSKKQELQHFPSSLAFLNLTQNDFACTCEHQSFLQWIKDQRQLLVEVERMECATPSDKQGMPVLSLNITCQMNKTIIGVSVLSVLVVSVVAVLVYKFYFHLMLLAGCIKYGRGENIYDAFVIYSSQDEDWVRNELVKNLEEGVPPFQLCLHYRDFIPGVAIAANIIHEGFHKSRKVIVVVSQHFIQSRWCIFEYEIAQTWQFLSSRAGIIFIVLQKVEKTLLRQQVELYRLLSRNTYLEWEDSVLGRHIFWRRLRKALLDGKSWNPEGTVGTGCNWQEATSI

[12] = Permeability of compound in dog MDCK cells; type: ADME, cell-based, Canis lupus familiaris; details: read-out: permeability

| Compound | IC50 (Toll-like receptor 8 [1]) [nM] | pKa [2] | IC50 (Toll-like receptor 8 [3]) [nM] | IC50 (Toll-like receptor 7) [nM] | also measured |
| --- | --- | --- | --- | --- | --- |
| COc1cc2c(C(=O)N3CCN(C)CC3)n[nH]c2cc1-c1cc(C)nc(C)c1 | 23 | 6.7 | 2.5 |  |  |
| COc1cc2c(NC3CCN(C)CC3)n[nH]c2cc1-c1ccnc(C)c1F |  | 4 |  |  |  |
| Cc1nccc(-c2cc3[nH]nc(NC4CCN(C)CC4)c3cc2C2CC2)c1F | 3.6 | 3.9 | 0.08 | 0.39 | logD at 4 h [4]: 2.5; IC50 [5]: 11000 nM; IC50 (Cytochrome P450 3A4): > 25000 nM; Cmax/dose [6]: 113 nM/mg/kg; AUC [7]: 485 nM·h/mg/kg; bioavailability [8]: 53%; clearance [9]: 49 mL/min/kg; Vd [10]: 4.4 L/kg; MRT [11]: 1.5 h |
| COc1cc2c(C(=O)N3CCN(C)CC3)n[nH]c2cc1-c1ccnc(C)c1F | 14 | 3.7 | 1.2 | > 980 |  |
| COc1cc2c(NC3CCN(C)CC3)n[nH]c2cc1-c1ccncc1 |  | 5.2 |  | 3 |  |
| COc1cc2cc[nH]c2cc1-c1ccncc1 | 2 | 5.8 | 3600 | 1700 | IC50 (Toll-like receptor 9): > 3600 nM; IC50 (Toll-like receptor 4): > 10000 nM; Papp [12]: 33 ×10⁻⁶ cm/s |
| Cc1nccc(-c2cc3[nH]nc(N[C@H]4CCNC[C@@H]4F)c3cc2C2CC2)c1F |  | 3.9 |  | 0.1 | logD at 4 h [4]: 2.5; IC50 [5]: 19000 nM; IC50 (Cytochrome P450 3A4): 4500 nM; Cp(f)/dose [6]: 155 nM/mg/kg; AUC [7]: 635 nM·h/mg/kg; bioavailability [8]: 43%; clearance [9]: 28 mL/min/kg; Vd [10]: 3.1 L/kg; MRT [11]: 1.8 h |
| Cc1cc(-c2cc3[nH]nc(N[C@H]4CCNC[C@@H]4F)c3cc2C2CC2)cc(C)n1 |  | 6.7 |  | 9 |  |
| Cc1cc2c(NC3CCN(C)CC3)n[nH]c2cc1-c1ccnc(C)c1F |  | 3.9 |  | 1 |  |
| COc1cc2c(NC3CCN(C)CC3)n[nH]c2cc1-c1cc(C)nc(C)c1 |  | 6.7 |  |  |  |
| COc1cc2c(C(=O)N3CCN(C)CC3)n[nH]c2cc1-c1ccncc1 |  | 5.3 |  | 220 |  |
| COc1cc2cn[nH]c2cc1-c1ccncc1 | 51 | 5.4 | > 9300 |  | Papp [12]: 38 ×10⁻⁶ cm/s |
| COc1cc(-c2cc3[nH]nc(NC4CCN(C)CC4)c3cc2OC)ccn1 |  | 3.4 |  | 11 |  |

From ChEMBL document CHEMBL5046316, “Structure-Based Optimization of a Fragment-like TLR8 Binding Screening Hit to an In Vivo Efficacious TLR7/8 Antagonist” (ACS Med Chem Lett, 2022)
